# Test system: tactile allodynia in a spinal nerve ligation neuropathic pain model
# Test: Lumbar 5/6 spinal nerve ligation neuropathic pain model, mechanical paw withdrawal threshold (von Frey)
# Format: in vivo, rat
# Text: Neuropathic pain was induced following the methods of Kim and Chung. Kim S H, Chung J M. An experimental model for peripheral neuropathy produced by segmental spinal nerve ligation in the rat. Pain 1992; 50:355-63. Rats were anesthetized and placed prone under a microsurgical apparatus. A midline incision was made on the back, and the right paraspinal muscles were separated from the spinous processes at the L4-S2 levels. The L6 transverse process was carefully removed, and the L4/5 spinal nerves were identified. The L5 nerve was tightly ligated with a 6-0 silk suture. The right L6 spinal nerve was then located just caudal and medial to the sacroiliac junction and tightly ligated with a silk suture.
# Two weeks later after spinal nerve ligation, Intrathecal catheters (PE-10 tubing) was inserted into the rats while they were anesthetized with isoflurane, as described by Yaksh and Rudy. Yaksh T L, Rudy T A. Chronic catheterization of the spinal subarachnoid space. Physiology & Behavior 1976; 17:1031-6. A midline incision was made on the back of the neck. The muscle was freed at the attachment to the skull exposing the cisternal membrane. The membrane was opened with a stab blade and an 8.5 cm polyethylene (PE-10) catheter was then inserted through the cisternal opening, and passed carefully and caudally into the intrathecal space at the L1-L3 spinal segments. The end of the catheter was tunneled through the subcutaneous space over the frontal bones, flushed with 10 μl saline, and then plugged with a short length of wire Animal testing was performed 5-7 days after intrathecal catheter placement.
# To assess mechanical allodynia, the mechanical paw withdrawal threshold was measured with a series of von Frey hairs (range 0.4-15 g). Rats were placed in elevated Perspex enclosures (28 cm×15 cm×18 cm) with wire mesh bases and given 15-20 min to acclimatize to the testing environment. Rats will be allowed to acclimatize for 30 min in a clear plastic cage with a wire mesh bottom. The calibrated von Frey filament fibers were applied to the hindpaw briefly for 6 seconds to determine the paw withdrawal threshold before and after drug injection (intraperitoneally or intrathecally). A series of von Frey filaments with exponentially incremental stiffness (0.4, 0.7, 1.2, 2.0, 3.6, 5.5, 8.5 and 15 g) were used to measure the 50% threshold for hindpaw withdrawal in awake, unrestrained rats. Chaplan S R, Bach F W, Pogrel J W, Chung J M, Yaksh T L. Quantitative assessment of tactile allodynia in the rat paw. Journal of Neuroscience Methods 1994; 53:55-63. Brisk paw withdrawal from the pressure of a filament gently bent against the plantar paw was defined as a positive response, and absence of withdrawal within 6 s as a negative response. Filaments were touched to the hindpaw in sequential ascending or descending order until the threshold of response is crossed (allowing about 10 s between each increment of the von Frey filaments). Each time the threshold is crossed, the direction of stimulus presentation was reversed and the procedure will be resumed. Four responses were collected after the first threshold detection, and the 50% withdrawal thresholds were interpolated. In cases where response thresholds fell outside the range of detection, 15.00 and 0.25 g were, respectively, assigned for continuous negative or positive responses to the limit of stimuli.
# All surgical procedures were performed under deep isoflurane anesthesia in 100% O2. The spinal nerve ligation (SNL) was performed as described previously. Kim, S. H., et al., An Experimental Model for Peripheral Neuropathy Produced by Segmental Spinal Nerve Ligation in the Rat, Pain, 1992, 50:355-63. Briefly, a midline incision above the lumbar spine exposed the left L6 transverse process. The process was then removed, the left L5 and L6 spinal nerves were isolated, and both nerves were tightly ligated with 6-0 silk. […]
smiles,measurement,setting,value
"CCCCCCN1C(=O)/C(=N\NC(=O)c2ccccc2)c2ccccc21 [Example 6, Benzoic acid [1-n-hexyl-2-oxo-1,2-dihydro-indol-3-ylidene]-hydrazide]",duration of peak threshold,"IP 30 mg/kg, rats",one
same,peak paw withdrawal threshold,"IP 30 mg/kg, rats",15 g
same,time of peak effect following administration,"IP 30 mg/kg, rats",≤ 5 min
same,effect on mechanical paw withdrawal threshold,"IP administration of 30 mg/kg in 0.5 ml, rats",produced an increase in mechanical paw withdrawal threshold
same,ED50,"Rattus norvegicus, ip, rats, spinal nerve ligation, 95% CI, read-out: ED50 of the anti-allodynic effect",5.9 mg/kg
same,ED90 of the anti-allodynic effect,"i.p., rats, spinal nerve ligation, 95% CI",12 (95% CI 9.6-15.5) mg/kg
same,effect on paw withdrawal threshold,"intrathecal (IT) administration, at 5 min, rats",short-lived modest increase in paw withdrawal threshold
same,behavioral abnormalities or side effects,rats of the nerve-ligation study,No behavioral abnormalities or side effects were noted

# Source: patent US9079854B2 (priority 2007, dated 2015)
